From patent publication US12247013B2, “Indane derivatives for use in the treatment of bacterial infection” (priority 2018, dated 2025)

Each compound was assayed against purified LasB protein from P. aeruginosa (Pseudomonas aeruginosa (strain ATCC 15692 / DSM 22644 / CIP 104116 / JCM 14847 / LMG 12228 / 1C / PRS 101 / PAO1), UniProt P14756) (assay: Fluorometric assay to determine Ki (Abz-Ala-Gly-Leu-Ala-p-Nitro-Benzyl-Amide substrate)). Conditions: 250 μM substrate, Ki calculated from IC50.
Chain of purified LasB protein from P. aeruginosa (P14756 198-498): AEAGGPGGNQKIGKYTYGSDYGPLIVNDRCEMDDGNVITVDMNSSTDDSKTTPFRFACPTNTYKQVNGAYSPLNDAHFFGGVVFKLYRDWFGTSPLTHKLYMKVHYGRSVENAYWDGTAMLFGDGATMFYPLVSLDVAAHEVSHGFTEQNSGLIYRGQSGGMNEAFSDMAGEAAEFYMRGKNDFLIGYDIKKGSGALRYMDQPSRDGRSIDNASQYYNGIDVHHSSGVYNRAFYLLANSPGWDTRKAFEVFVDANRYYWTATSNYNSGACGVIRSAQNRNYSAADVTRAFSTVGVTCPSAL
Assay type: biochemical
Experimental: Experiments were therefore conducted (1) to measure the potency of inhibition of compounds of the invention against purified Pseudomonas aeruginosa LasB enzyme and also experiments were conducted (2) to measure the ability of compounds of the invention to inhibit LasB-catalysed elastin degradation. The first assay uses a commercial fluorescent synthetic peptide and purified LasB enzyme. The LasB hydrolysis kinetics are measured allowing the determination of the IC50 and Ki of the inhibitors; the second is a more physiological assay using dialysed Pseudomonas aeruginosa supernatant as source of enzyme, plus its natural substrate Elastin. It is an “end point assay” that determines the percentage of LasB inhibition by each compound for one particular time point and inhibitor concentration. Technical details are described below:
Fluorometric Assay to Determine Ki
This assay uses commercially available substrate (Abz-Ala-Gly-Leu-Ala-p-Nitro-Benzyl-Amide (Ex: 340 nm, Em: 415 nm) from Peptide International) and purified LasB protein from P. aeruginosa (provided by Merck or Charles River Laboratories). It is performed to determine LasB elastase activity and assess compound inhibition in 96-well plate format. All compounds of Formula (I) were assessed using the method described below.
Method: 10 to 140 ng/ml purified LasB is incubated with 250 μM Abz-Ala-Gly-Leu-Ala-p-Nitro-Benzyl-Amide in 50 mM Tris-HCl pH 7.4, 2.5 mM CaCl2), 0.01% of Triton X100 at 37° C. LasB activity (corresponding to fluorescence emission induced by substrate hydrolysis) is measured over 30 min at 37° C. with a fluorescence plate reader such as the Perkin Elmer Envision or similar. Different range of inhibitor concentrations are routinely assessed depending of inhibitor potency from 0.0016 to 200 μM (2-fold dilutions series) in order to determine IC50.
The equation used to calculate the Ki from IC50 is: Ki=IC50/(1+([S]/Km)) where [S]=250 μM and Km=214 μM.
For COc1cc2sc(CNC(=O)C3(CC(=O)O)Cc4ccccc4C3)nc2cc1OCCN1CCOCC1 [Example 9, 2-[2-[[6-methoxy-5-(2-morpholinoethoxy)-1,3-benzothiazol-2-yl]methylcarbamoyl]indan-2-yl]acetic Acid], the Ki was < 50 nM.
In the case of COc1cc2sc(CNC(=O)C3(CC(=O)O)Cc4cc(F)c(F)cc4C3)nc2cc1OCCN1CCOCC1 [Example 10, 2-[5,6-difluoro-2-[[6-methoxy-5-(2-morpholinoethoxy)-1,3-benzothiazol-2-yl]methylcarbamoyl]indan-2-yl]acetic Acid], the Ki is reported as < 50 nM.
In the case of COc1cc2sc(CNC(=O)C3(CC(=O)O)Cc4cc(F)c(F)cc4C3)nc2cc1OCC1CCN(C)CC1 [Example 11, 2-[5,6-difluoro-2-[[6-methoxy-5-[(1-methyl-4-piperidyl)methoxy]-1,3-benzothiazol-2-yl]methylcarbamoyl]indan-2-yl]acetic Acid], the Ki is reported as < 50 nM.
With COc1cc2sc(CNC(=O)C3(CC(=O)[O-])Cc4ccccc4C3)nc2cc1OCCC[N+]1(C)CCOCC1 [Example 16, 2-[2-[[6-methoxy-5-[3-(4-methylmorpholin-4-ium-4-yl)propoxy]-1,3-benzothiazol-2-yl]methylcarbamoyl]indan-2-yl]acetate] the Ki was < 50 nM.
For CC[N+](C)(CC)CCCOc1cc2nc(CNC(=O)C3(CC(=O)[O-])Cc4ccccc4C3)sc2cc1OC [Example 18, 2-[2-[[5-[3-[diethyl(methyl)ammonio]propoxy]-6-methoxy-1,3-benzothiazol-2-yl]methylcarbamoyl]indan-2-yl]acetate], the Ki was < 50 nM.
With COc1cc2sc(CNC(=O)C3(CC(=O)[O-])Cc4cc(F)c(F)cc4C3)nc2cc1OCCC[N+]1(C)CCCC1 [Example 19, 2-[5,6-difluoro-2-[[6-methoxy-5-[3-(1-methylpyrrolidin-1-ium-1-yl)propoxy]-1,3-benzothiazol-2-yl]methylcarbamoyl]indan-2-yl]acetate] the Ki was < 50 nM.
With COc1cc2sc(CNC(=O)C3(CC(=O)[O-])Cc4ccccc4C3)nc2cc1OCCC[N+](C)(C)CCO [Example 20, 2-[2-[[5-[3-[2-hydroxyethyl(dimethyl)ammonio]propoxy]-6-methoxy-1,3-benzothiazol-2-yl]methylcarbamoyl]indan-2-yl]acetate] the Ki was < 50 nM.
With COc1cc2sc(CNC(=O)C3(CC(=O)[O-])Cc4cc(F)c(F)cc4C3)nc2cc1OCCC[N+](C)(C)CCO [Example 21, 2-[5,6-difluoro-2-[[5-[3-[2-hydroxyethyl(dimethyl)ammonio]propoxy]-6-methoxy-1,3-benzothiazol-2-yl]methylcarbamoyl]indan-2-yl]acetate] the Ki was < 50 nM.
In the case of COc1cc2sc(CNC(=O)C3(CC(=O)[O-])Cc4ccccc4C3)nc2cc1OCCC[N+](C)(CCO)CCO [Example 22, 2-[2-[[5-[3-[bis(2-hydroxyethyl)-methyl-ammonio]propoxy]-6-methoxy-1,3-benzothiazol-2-yl]methylcarbamoyl]indan-2-yl]acetate], the Ki is reported as < 50 nM.
With COc1cc2sc(CNC(=O)C3(CC(=O)[O-])Cc4cc(F)c(F)cc4C3)nc2cc1OCCC[N+](C)(CCO)CCO [Example 23, 2-[2-[[5-[3-[bis(2-hydroxyethyl)-methyl-ammonio]propoxy]-6-methoxy-1,3-benzothiazol-2-yl]methylcarbamoyl]-5,6-difluoro-indan-2-yl]acetate] the Ki was < 50 nM.
In the case of COc1cc2sc(CNC(=O)C3(CC(=O)O)Cc4ccccc4C3)nc2cc1C(=O)N1CCN(C)CC1 [Example 33, 2-[2-[[6-methoxy-5-(4-methylpiperazine-1-carbonyl)-1,3-benzothiazol-2-yl]methylcarbamoyl]indan-2-yl]acetic Acid], the Ki is reported as < 50 nM.
With COc1cc2sc(CNC(=O)C3(CC(=O)O)Cc4ccccc4C3)nc2cc1C(=O)N1CC(N(C)C)C1 [Example 36, 2-[2-[[5-[3-(dimethylamino)azetidine-1-carbonyl]-6-methoxy-1,3-benzothiazol-2-yl]methylcarbamoyl]indan-2-yl]acetic Acid] the Ki was < 50 nM.
In the case of COc1cc2sc(CNC(=O)C3(CC(=O)O)Cc4cc(F)c(F)cc4C3)nc2cc1C(=O)N1CC(N(C)C)C1 [Example 37, 2-[2-[[5-[3-(dimethylamino)azetidine-1-carbonyl]-6-methoxy-1,3-benzothiazol-2-yl]methylcarbamoyl]-5,6-difluoro-indan-2-yl]acetic Acid], the Ki is reported as < 50 nM.
With COc1cc2sc(CNC(=O)C3(CC(=O)[O-])Cc4cc(F)c(F)cc4C3)nc2cc1OCC1CC[N+](C)(C)CC1 [Example 44, 2-[2-[[5-[(1,1-dimethylpiperidin-1-ium-4-yl)methoxy]-6-methoxy-1,3-benzothiazol-2-yl]methylcarbamoyl]-5,6-difluoro-indan-2-yl]acetate] the Ki was < 50 nM.

These compounds were tested on Pseudomonas aeruginosa (PAO1) (assay: Mouse model of Pseudomonas aeruginosa lung infection). Conditions: mice infected with wild-type PAO1, intravenous 10 and 30 mg/kg at 1 h and 2 h post infection, 24 hours post infection (FIG. 2).
Assay type: in vivo
Experimental: Mice were dosed by intranasal inoculation of PA (PAO1), then sacrified after 24 hours. The extent of infection in the lung was quantified by bacterial load (CFU determination, colony forming units) and the levels of proinflammatory IL-1β. Statistical analysis on both readouts were performed by ANOVA with a Dunnett post-test.
Compounds were administered intravenously in a two-dose regimen (1 hour and 2 hours post infection) at two different doses (10 and 30 mg/kg).
COc1cc2sc(CNC(=O)C3(CC(=O)[O-])Cc4cc(F)c(F)cc4C3)nc2cc1OCCC[N+](C)(CCO)CCO [Example 23, 2-[2-[[5-[3-[bis(2-hydroxyethyl)-methyl-ammonio]propoxy]-6-methoxy-1,3-benzothiazol-2-yl]methylcarbamoyl]-5,6-difluoro-indan-2-yl]acetate] was tested, and the “production and activation of IL-1β in the lung” value was “inhibited the production and activation of IL-1β in mice infected by wild-type PA (PA01) at a similar level than the lasB deleted mutant”.

Same assay, conditions: mice infected with wild-type PAO1, intravenous 10 and 30 mg/kg at 1 h and 2 h post infection, 24 hours post infection (FIG. 3)
COc1cc2sc(CNC(=O)C3(CC(=O)[O-])Cc4cc(F)c(F)cc4C3)nc2cc1OCCC[N+](C)(CCO)CCO [Example 23, 2-[2-[[5-[3-[bis(2-hydroxyethyl)-methyl-ammonio]propoxy]-6-methoxy-1,3-benzothiazol-2-yl]methylcarbamoyl]-5,6-difluoro-indan-2-yl]acetate] was tested, and the “extent of infection in the lung (CFU levels)” value was “reduced the extent of infection in the lung to the level of the LasB deleted mutant”.
